Source: PMC8348110, “A Novel Peptide Derived from the Transmembrane Domain of Romo1 Is a Promising Candidate for Sepsis Treatment and Multidrug-Resistant Bacteria” (International Journal of Molecular Sciences, 2021)
Residues, ends and D or L forms follow the SMILES beside them.

Columns and labels:
human erythrocytes = experiment: Hemolysis assay; format: cell-based; settings: 2% erythrocytes in PBS, 1 h 37 °C, absorbance 550 nm; up to / at 256 µg/mL
Description: For the hemolytic assay, mouse and human whole blood was diluted with PBS (pH 7.4) and centrifuged for 10 min at 500× g. After removing the supernatant and rinsing the pellet three times with PBS, we resuspended the erythrocytes in PBS at 2% volume. The blood solution was added to the solution of peptides with two-fold serial dilution on a 96-well plate. After incubation for an hour at 37 °C, the plate was centrifuged at 2500× g for 10 min, and the absorbance of the supernatant was measured at 550 nm. The PBS-treated sample was the negative control, and the 0.1% Triton X-100–treated sample was the positive control. To measure white blood cell toxicity, mouse and human PBMCs were freshly isolated as previously described, and 70% ethanol (positive control) or AMPR-22 was administered using two-fold diluted concentrations (0 to 256 μg/mL) for 30 min. To measure cell death, a LIVE/DEAD® fixable green dead cell stain kit (Thermo Fisher Scientific, Waltham, MS, USA) was used following the manufacturer′s instructions, and flow cytometry was performed using a FACS Canto II (BD Biosciences, CA, USA). The toxicity of AMPR-22 was compared with negative (PBS-treated) and positive controls, and the data were analyzed using FlowJo software (Tree Star, OR, USA).

P. aeruginosa = experiment: Serial passage assay (acquisition of drug resistance); format: cell-based, Pseudomonas aeruginosa; settings: sub-MBC treatment
Description: For the PI uptake assay, bacteria were cultured in the mid-log phase and diluted to 5 × 10^5 CFU/mL in PBS (pH 7.4). The peptides were treated with 40 μg/mL for 10 min, and then 10 μM PI was added and incubated for 20 min. The PI fluorescence was measured with a flow cytometric assay using a FACS Canto II (BD Biosciences, CA, USA), and the data were analyzed using FlowJo software (Tree Star, Ashland, OR, USA). NPN uptake and a membrane depolarization assay were performed as previously described, with some changes. Briefly, 1 × 10^4 CFU/mL of bacteria were place on a 96-well plate, and then 10 μM NPN or 4 μM DiSC3(5) was added, and AMPR-22 was administered. The fluorescence signal was measured for 10 min using a SpectraMax Plus 384 microplate reader (Molecular Devices, San Jose, CA, USA). For the NPN uptake assay, AMPR-22 was administered 3 min after the start of the fluorescence measurements. The ATP leakage assay was performed using a BacTiter-glo™ kit (Promega, Madison, WI, USA) and the manufacturer’s instructions with minor modifications. […] The luminescence signal was measured using a SpectraMax Plus 384 microplate reader (Molecular Devices, San Jose, CA, USA). […] Sub-MBC concentrations of peptide were administered to 1 mL of cultured cells, and then the MBC values were determined for every passage. […]

[1] = test system: Streptococcus pneumoniae NCCP 14585; format: cell-based; settings: NCCP 14585, 1 h
Description: (§1) The minimum bactericidal concentration (MBC) was determined as previously described with minor modifications. Briefly, bacteria were cultured in the mid-log phase and diluted to 5 × 10^5 colony-forming unit (CFU)/mL in 10 mM sodium phosphate buffer (pH 7.4) with a 1% volume of TS broth. They were incubated for 1 h with various peptides which were two-fold diluted serially from 64 μg/mL to 0 μg/mL concentrations in a 96-well plate. The samples were inoculated TS agar plate and incubated overnight at 37 °C. The value of MBC was determined at the lowest concentrations at which no colonies were identified.
(§2) We used the CFU counting method to measure antibacterial activity, with all bacteria cultured to the mid-log phase in an appropriate broth medium. Bacterial CFUs were counted after overnight culture at 37 °C on TS or LB agar plates. The MBC value and antibacterial activity in blood components were determined as previously described. Mouse and human whole blood were collected and diluted with PBS (pH 7.4) to measure the ex vivo antibacterial activity of AMPR-22. For that test, AMPR-22 (10 μg) was added to each whole blood solution and incubated at 37 °C with shaking at 200 rpm. At each time point, it was incubated with bacteria (1 × 10^3 CFU) for 30 min. Each sample was inoculated on an LB agar plate, and CFU counting was performed. To measure the in vivo activity of AMPR-22, 1 × 10^8 CFU of bacteria were injected into BALB/c mice, and an hour later, 10 mg/kg of the test peptides were injected. Blood samples were collected by tail cut, serially diluted with PBS (pH 7.4), and inoculated on LB-agar plates, followed by CFU counting. To estimate the functional half-life of AMPR-22, 40 mg/kg of each tested peptide were injected into mice. Whole blood sampling was performed by cardiac puncture, and the plasma was isolated by centrifugation (2000× g, 15 min). The isolated plasma was incubated with bacteria (1 × 10^3 CFU) for an hour, and then the CFU counting method was performed.

[2] = test system: Staphylococcus aureus ATCC 29213; format: cell-based
Description: as §1, §2

[3] = test system: Pseudomonas aeruginosa ATCC 27853; format: cell-based
Description: as §1, §2

[4] = test system: Acinetobacter baumannii ATCC 19606; experiment: Modified MBC determination; format: cell-based; settings: Table 2
Description: as §1, §2

[5] = test system: Enterococcus faecium ATCC 19434; experiment: Modified MBC determination; format: cell-based; settings: Table 2
Description: as §1, §2

[6] = test system: Bacillus subtilis ATCC 6633; experiment: Modified MBC determination; format: cell-based; settings: Table 2
Description: as §1, §2

[7] = test system: Streptomyces sindenensis ATCC 23963; experiment: Modified MBC determination; format: cell-based; settings: Table 2
Description: as §1, §2

[8] = test system: Enterococcus faecalis ATCC 19433; experiment: Modified MBC determination; format: cell-based; settings: Table 2
Description: as §1, §2

[9] = test system: Klebsiella pneumoniae ATCC 13883; experiment: Modified MBC determination; format: cell-based; settings: Table 2
Description: as §1, §2

[10] = test system: Escherichia coli ATCC 25922; experiment: Modified MBC determination; format: cell-based; settings: Table 2
Description: as §1, §2

[11] = test system: Enterobacter aerogenes ATCC 13048; experiment: Modified MBC determination; format: cell-based; settings: Table 2
Description: as §1, §2

[12] = test system: Vancomycin-resistant E. faecium NCCP 11522; format: cell-based, Enterococcus faecium; settings: Vancomycin-resistant NCCP 11522, 1 h
Description: as §1
We used the CFU counting method to measure antibacterial activity, with all bacteria cultured to the mid-log phase in an appropriate broth medium. Bacterial CFUs were counted after overnight culture at 37 °C on TS or LB agar plates. The MBC value and antibacterial activity in blood components were determined as previously described. Mouse and human whole blood were collected and diluted with PBS (pH 7.4) to measure the ex vivo antibacterial activity of AMPR-22. For that test, AMPR-22 (10 μg) was added to each whole blood solution and incubated at 37 °C with shaking at 200 rpm. At each time point, it was incubated with bacteria (1 × 10^3 CFU) for 30 min. Each sample was inoculated on an LB agar plate, and CFU counting was performed. […]

[13] = test system: Carbapenem-resistant P. aeruginosa (CRPA), clinical isolate; format: cell-based, Pseudomonas aeruginosa; settings: 1 h
Excerpt: Acinetobacter baumannii (ATCC 19606), B. subtilis (ATCC 6633), E. aerogenes (ATCC 13048), E. coli (ATCC 25922), E. faecalis (ATCC 19433), E. faecium (ATCC 19434), K. pneumoniae (ATCC 13883), P. aeruginosa (ATCC 27853), S. aureus (ATCC 29213), S. sindenensis (ATCC 23963), and MRSA (ATCC 33591) were purchased from the American Type Culture Collection (ATCC; Gaithersburg, MD, USA). Streptococcus pneumoniae (NCCP 14585), vancomycin-resistant E. faecium (NCCP 11522), and vancomycin-resistant S. aureus (NCCP 15872) were purchased from the National Culture Collection for Pathogens (NCCP; Cheongju, Korea). The isolation and use of carbapenem-resistant bacterial strains from a patient were approved (2015AN0129) by the Institutional Review Board (IRB) of Korea University Hospital. CRPA, CRKP, and CRAB were clinically isolated in Korea University Hospital (Seoul, Korea). CRPA was confirmed to be resistant to piperacillin, piperacillin-tazobactam, ceftazidime, imipenem, meropenem, gentamicin, amikacin, and ciprofloxacin. CRAB was confirmed to be resistant to piperacillin, piperacillin-tazobactam, cefepime, ceftazidime, imipenem, meropenem, gentamicin, amikacin, and ciprofloxacin. CRKP was confirmed to be resistant to piperacillin-tazobactam, cefepime, ceftazidime, imipenem, gentamicin, and ciprofloxacin. All strains were stored at –80 °C in 50% glycerol and 50% Luria-Bertani (LB) or tryptic soy (TS) broth, grown on LB or TS plates, and aerated at 37 °C.
as §1, §2

[14] = test system: Carbapenem-resistant K. pneumoniae, clinical isolate; format: cell-based, Klebsiella pneumoniae; settings: 1 h
Excerpt: (§3) Acinetobacter baumannii (ATCC 19606), B. subtilis (ATCC 6633), E. aerogenes (ATCC 13048), E. coli (ATCC 25922), E. faecalis (ATCC 19433), E. faecium (ATCC 19434), K. pneumoniae (ATCC 13883), P. aeruginosa (ATCC 27853), S. aureus (ATCC 29213), S. sindenensis (ATCC 23963), and MRSA (ATCC 33591) were purchased from the American Type Culture Collection (ATCC; Gaithersburg, MD, USA). Streptococcus pneumoniae (NCCP 14585), vancomycin-resistant E. faecium (NCCP 11522), and vancomycin-resistant S. aureus (NCCP 15872) were purchased from the National Culture Collection for Pathogens (NCCP; Cheongju, Korea). The isolation and use of carbapenem-resistant bacterial strains from a patient were approved (2015AN0129) by the Institutional Review Board (IRB) of Korea University Hospital. […]
(§4) The minimum bactericidal concentration (MBC) was determined as previously described with minor modifications. […] The value of MBC was determined at the lowest concentrations at which no colonies were identified.
(§5) We used the CFU counting method to measure antibacterial activity, with all bacteria cultured to the mid-log phase in an appropriate broth medium. Bacterial CFUs were counted after overnight culture at 37 °C on TS or LB agar plates. The MBC value and antibacterial activity in blood components were determined as previously described. […]

[15] = test system: Vancomycin-resistant S. aureus NCCP 15872; format: cell-based, Staphylococcus aureus; settings: Vancomycin-resistant NCCP 15872, 1 h
Description: as §1, §2

[16] = test system: Methicillin-resistant S. aureus (MRSA) ATCC 33591; format: cell-based, Staphylococcus aureus; settings: Table 2; ATCC 33591; modified MBC
Description: as §1, §2

[17] = test system: Carbapenem-resistant A. baumannii, clinical isolate; format: cell-based, Acinetobacter baumannii; settings: 1 h
Excerpt: as §3, §4, §5

CC[C@H](C)[C@H](NC(=O)CNC(=O)[C@H](CCSC)NC(=O)CNC(=O)[C@@H](NC(=O)[C@H](C)NC(=O)[C@H](CCSC)NC(=O)[C@H](Cc1ccccc1)NC(=O)[C@@H](NC(=O)CNC(=O)[C@H](Cc1ccccc1)NC(=O)[C@@H](NC(=O)CNC(=O)CNC(=O)[C@H](CO)NC(=O)[C@H](CCC(N)=O)NC(=O)[C@H](CCSC)NC(=O)[C@H](CCSC)NC(=O)[C@@H](NC(=O)[C@@H](N)CCCCN)[C@@H](C)O)[C@@H](C)O)[C@@H](C)O)[C@@H](C)CC)C(=O)N[C@@H](CCCNC(=N)N)C(=O)O [AMPR-11] (H-KTMMQSGGTFGTFMAIGMGIR-OH)
low hemolytic activity: Hemolytic activity against human erythrocytes (human erythrocytes)

CNC(C)C1CCC(N)C(OC2C(N)CC(N)C(OC3OCC(C)(O)C(NC)C3O)C2O)O1 (stereo not drawn) [gentamicin]
nine: Passages after which resistance developed (P. aeruginosa)
64 fold: Increase of the modified MBC value after 30 passages (P. aeruginosa; 30 passages)

CC[C@H](C)[C@H](NC(=O)CNC(=O)[C@H](CCSC)NC(=O)CNC(=O)[C@@H](NC(=O)[C@H](C)NC(=O)[C@H](CCSC)NC(=O)[C@H](Cc1ccccc1)NC(=O)[C@@H](NC(=O)CNC(=O)[C@H](Cc1ccccc1)NC(=O)[C@H](CCCCN)NC(=O)CNC(=O)CNC(=O)[C@H](CCCCN)NC(=O)[C@H](CCCCN)NC(=O)[C@H](CCSC)NC(=O)[C@H](CCSC)NC(=O)[C@H](CCCCN)NC(=O)[C@@H](N)CCCCN)[C@@H](C)O)[C@@H](C)CC)C(=O)N[C@@H](CCCNC(=N)N)C(=O)O [AMPR-21] (H-KKMMKKGGKFGTFMAIGMGIR-OH)
4 µg/mL: MBC Value, Staphylococcus aureus ([2]; Table 2, ATCC 29213, modified MBC) | MBC Value, P. aeruginosa ([3]; ATCC 27853, 1 h) | MBC Value, Pseudomonas aeruginosa ([3]; Table 2, ATCC 27853, modified MBC) | MBC Value, Acinetobacter baumannii [4] | MBC Value, Streptomyces sindenensis [7] | MBC Value, Klebsiella pneumoniae [9] | MBC Value, Escherichia coli [10] | MBC Value, Enterobacter aerogenes [11] | MBC Value, CRPA [13] | MBC Value, Carbapenem-resistant P. aeruginosa [13]
negligible hemolytic activity: Hemolytic activity against human erythrocytes (human erythrocytes)
2 µg/mL: MBC Value, Bacillus subtilis [6] | MBC Value, Carbapenem-resistant A. baumannii [17]
8 µg/mL: MBC Value, Streptococcus pneumoniae [1] | MBC Value, S. aureus ([2]; ATCC 29213, 1 h, pH 7.4) | MBC Value, Enterococcus faecium [5] | MBC Value, Enterococcus faecalis [8] | MBC Value, Vancomycin-resistant E. faecium [12] | MBC Value, Carbapenem-resistant K. pneumoniae [14] | MBC Value, Vancomycin-resistant S. aureus [15] | MBC Value, Methicillin-resistant S. aureus [16]
